Measured values: patent publication US20240208932A1, “ARYLAMINO DERIVATIVE ESTROGEN RECEPTOR MODULATOR AND USE THEREOF” (XIZANG HAISCO PHARMACEUTICAL CO., LTD., priority 2021, published 2024)

Experiments:
[1] = Pharmacokinetic test in rats; assay type: in vivo; details: male, SD, rat, plasma; for Vd: read-out: Vdss
Procedure: 3. Pharmacokinetic Test in Rats
3.1 Experimental animals: male SD rats, about 220 g, 6-8 weeks old, 6 rats/compound, purchased from Chengdu Ddossy Experimental Animals Co., Ltd.
3.2 Experimental design: on the day of the test, 24 SD rats were randomly grouped according to their body weight; the animals were fasted with water available for 12 to 14 h one day before the administration, and were fed 4 h after the administration;
(DMA: dimethylacetamide; Solutol: Polyethylene glycol-15-hydroxystearate; Saline: Normal saline; MC: methylcellulose)
(§1) Before and after the administration, 0.15 ml of blood was taken from the orbit of the animals under isoflurane anesthesia and placed in an EDTAK2 centrifuge tube. The blood was centrifuged at 5000 rpm and 4° C. for 10 min to collect plasma. The blood collection time points for the intravenous administration group and intragastric administration group were: 0, 5 min, 15 min, 30 min, 1 h, 2 h, 4 h, 6 h, 8 h, and 24 h. Before analysis and detection, all samples were stored at −80° C., and a quantitative analysis of samples was performed using LC-MS/MS.

[2] = target: hERG potassium ion channel (Homo sapiens (Human), UniProt Q12809); assay: Test for hERG potassium ion channel (manual patch-clamp, CHO cells); assay type: cell-based; details: for IC50: CHO cells stably expressing hERG, whole cell patch-clamp, read-out: IC50 on hERG potassium channel current; for inhibition at 40 µM: human, CHO cells stably expressing hERG potassium channel, hERG potassium channel current, read-out: Inhibition rate at the highest concentration tested
Text: 5. Test for hERG Potassium Ion Channel
Test platform: electrophysiological manual patch-clamp system
Cell line: Chinese hamster ovary (CHO) cell lines stably expressing hERG potassium ion channel Test method: In CHO (Chinese Hamster Ovary) cells stably expressing hERG potassium channel, whole cell patch-clamp technique was used to record hERG potassium channel current at room temperature. The glass microelectrode was made of a glass electrode blank (BF150-86-10, Sutter) by a puller. The tip resistance after filling the liquid in the electrode was about 2-5 MΩ. The glass microelectrode can be connected to the patch-clamp amplifier by inserting the glass microelectrode into an amplifier probe. The clamping voltage and data recording were controlled and recorded by the pClamp 10 software through a computer. The sampling frequency was 10 kHz, and the filtering frequency was 2 kHz. After the whole cell records were obtained, the cells were clamped at −80 mV, and the step voltage that induced the hERG potassium current (I hERG) was depolarized from −80 mV to +20 mV for 2 s, then repolarized to −50 mV, and returned to −80 mV after 1 s. This voltage stimulation was given every 10 s, and the administration process was started after the hERG potassium current was confirmed to be stable (at least 1 minute). The compound was administered for at least 1 minute at each test concentration, and at least 2 cells ([…]) were tested at each concentration.
Data processing: Data analysis processing was carried out by using pClamp 10, GraphPad Prism 5 and Excel software. The inhibition degree of hERG potassium current (peak value of hERG tail current induced at −50 mV) at different compound concentrations was calculated by the following formula:
Inhibition %=[1−(I/Io)]×100% wherein, Inhibition % represents the percentage of inhibition of hERG potassium current by the compound, and I and Io represent the amplitude of hERG potassium current after and before dosing, respectively.
IC50 for the compound was calculated using GraphPad Prism 5 software by fitting according to the following equation:
Y=Bottom+(Top−Bottom)/(1+10^((LogIC50−X)*HillSlope)) wherein, X represents the Log value of the tested concentration of the test sample, Y represents the inhibition percentage at the corresponding concentration, and Bottom and Top represent the minimum and maximum inhibition percentage, respectively.

[3] = Pharmacokinetic test in mice; assay type: in vivo; details: male, ICR, mouse, plasma; for Vd: read-out: Vdss
Procedure: 4. Pharmacokinetic Test in Mice
4.1 Experimental animals: male ICR mice, 20-25 g, 18 mice/compound. purchased from Chengdu Ddossy Experimental Animals Co., Ltd.
4.2 Experimental design: on the day of the test, 72 ICR mice were randomly grouped according to their body weights. the animals were fasted with water available for 12 to 14 h one day before the administration, and were fed 4 h after the administration;
as §1, with “administration, 0.06 mL” for “administration, 0.15 ml”, “intravenous” for “intravenous administration”, “administration […]” for “administration”, “were: 0 min,” for “were: 0,”

CYP2C9 = CYP2C9 (Homo sapiens (Human), UniProt P11712); assay: CYP450 enzyme inhibition test, human liver microsomes; assay type: in vitro ADME; details: incubation concentration 0-50/100 μM
Procedure: (§2) 6. CYP450 Enzyme Inhibition Test
(§3) The purpose of this study was to evaluate the effect of the test compound on the activity of five isoenzymes (CYP1A2, CYP2C9, CYP2C19, CYP2D6 and CYP3A4) of human liver microsomal cytochrome P450 (CYP) by using an in vitro testing system. The specific probe substrates of CYP450 isoenzymes were incubated with human liver microsomes and test compounds of different concentrations, and reduced nicotinamide adenine dinucleotide phosphate (NADPH) was added to initiate the reaction. After the completion of the reaction, the sample was treated and liquid chromatography-tandem mass spectrometry (LC-MS/MS) was used to quantitatively detect metabolites produced by specific substrates, changes in CYP enzyme activity were determined, and IC50 value was calculated to evaluate the inhibitory potential of the test compound on each CYP enzyme subtype.

CYP2D6 = CYP2D6 (Homo sapiens (Human), UniProt P10635); assay: as above; assay type: in vitro ADME; details: incubation concentration 0-50/100 μM
Procedure: as §2, §3

CYP1A2 = CYP1A2 (Homo sapiens (Human), UniProt P05177); assay: as above; assay type: in vitro ADME; details: incubation concentration 0-50/100 μM
Procedure: as §2, §3

CYP3A4 = CYP3A4 (Homo sapiens (Human), UniProt P08684); assay: as above; assay type: in vitro ADME; details: incubation concentration 0-50/100 μM, read-out: IC50 CYP3A-M
Procedure: as §2, §3

Sequence of hERG potassium ion channel (Q12809 whole entry): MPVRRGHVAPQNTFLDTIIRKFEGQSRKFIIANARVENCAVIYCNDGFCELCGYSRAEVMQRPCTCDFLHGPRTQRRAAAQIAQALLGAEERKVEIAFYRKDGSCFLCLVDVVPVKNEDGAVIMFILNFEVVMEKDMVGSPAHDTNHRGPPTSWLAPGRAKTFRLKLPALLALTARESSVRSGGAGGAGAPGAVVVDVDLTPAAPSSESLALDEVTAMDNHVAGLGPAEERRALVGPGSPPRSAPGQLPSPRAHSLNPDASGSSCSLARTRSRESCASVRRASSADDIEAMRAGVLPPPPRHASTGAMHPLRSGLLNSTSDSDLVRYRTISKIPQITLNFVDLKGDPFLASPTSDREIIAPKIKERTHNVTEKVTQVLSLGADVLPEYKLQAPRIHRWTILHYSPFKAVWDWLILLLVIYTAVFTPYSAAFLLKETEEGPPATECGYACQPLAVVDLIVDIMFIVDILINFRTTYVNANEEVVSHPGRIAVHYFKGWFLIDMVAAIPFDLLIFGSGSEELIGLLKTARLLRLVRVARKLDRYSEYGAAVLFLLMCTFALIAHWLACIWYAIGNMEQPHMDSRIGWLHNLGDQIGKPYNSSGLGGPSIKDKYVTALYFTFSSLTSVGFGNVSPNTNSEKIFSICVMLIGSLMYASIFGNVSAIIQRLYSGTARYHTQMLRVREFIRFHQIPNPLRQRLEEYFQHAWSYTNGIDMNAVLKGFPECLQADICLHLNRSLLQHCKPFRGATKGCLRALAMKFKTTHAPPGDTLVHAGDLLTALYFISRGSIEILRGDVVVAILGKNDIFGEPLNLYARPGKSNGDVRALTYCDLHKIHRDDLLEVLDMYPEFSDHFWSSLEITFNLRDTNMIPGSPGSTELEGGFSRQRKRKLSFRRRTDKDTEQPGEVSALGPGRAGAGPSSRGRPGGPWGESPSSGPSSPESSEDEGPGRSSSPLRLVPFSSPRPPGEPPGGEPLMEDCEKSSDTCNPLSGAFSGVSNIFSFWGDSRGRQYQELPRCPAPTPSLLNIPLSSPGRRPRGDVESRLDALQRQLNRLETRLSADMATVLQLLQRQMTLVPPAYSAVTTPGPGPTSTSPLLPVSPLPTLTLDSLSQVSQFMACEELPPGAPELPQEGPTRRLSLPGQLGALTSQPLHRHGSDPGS
Sequence of CYP2D6 (P10635 whole entry): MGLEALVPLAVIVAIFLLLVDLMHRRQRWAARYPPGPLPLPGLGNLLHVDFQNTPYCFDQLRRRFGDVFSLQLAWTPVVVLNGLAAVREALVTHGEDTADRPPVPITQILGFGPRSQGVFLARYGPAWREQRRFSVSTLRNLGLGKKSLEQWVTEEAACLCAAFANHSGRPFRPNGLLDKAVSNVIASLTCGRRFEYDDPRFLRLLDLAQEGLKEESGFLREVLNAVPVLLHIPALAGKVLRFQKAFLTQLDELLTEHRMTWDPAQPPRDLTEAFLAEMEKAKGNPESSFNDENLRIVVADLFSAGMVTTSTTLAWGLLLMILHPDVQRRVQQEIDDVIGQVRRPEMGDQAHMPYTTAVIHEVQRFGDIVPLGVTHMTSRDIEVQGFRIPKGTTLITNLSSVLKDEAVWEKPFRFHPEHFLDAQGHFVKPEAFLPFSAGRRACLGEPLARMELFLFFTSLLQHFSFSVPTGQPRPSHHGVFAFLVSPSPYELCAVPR
Sequence of CYP3A4 (P08684 whole entry): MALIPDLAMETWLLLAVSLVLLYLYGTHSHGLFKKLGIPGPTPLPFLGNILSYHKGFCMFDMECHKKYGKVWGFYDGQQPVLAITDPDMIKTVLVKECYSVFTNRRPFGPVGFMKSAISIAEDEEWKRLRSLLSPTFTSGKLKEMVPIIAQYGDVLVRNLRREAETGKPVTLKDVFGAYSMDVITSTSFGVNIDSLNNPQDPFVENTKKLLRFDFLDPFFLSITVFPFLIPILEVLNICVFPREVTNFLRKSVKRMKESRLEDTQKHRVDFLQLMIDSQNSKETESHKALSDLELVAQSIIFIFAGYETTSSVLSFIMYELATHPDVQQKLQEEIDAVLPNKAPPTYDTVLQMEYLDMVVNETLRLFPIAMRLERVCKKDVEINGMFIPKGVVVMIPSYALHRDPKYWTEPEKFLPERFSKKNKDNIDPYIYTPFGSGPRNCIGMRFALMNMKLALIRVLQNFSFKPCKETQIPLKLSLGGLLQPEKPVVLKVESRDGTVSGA
Sequence of CYP2C9 (P11712 whole entry): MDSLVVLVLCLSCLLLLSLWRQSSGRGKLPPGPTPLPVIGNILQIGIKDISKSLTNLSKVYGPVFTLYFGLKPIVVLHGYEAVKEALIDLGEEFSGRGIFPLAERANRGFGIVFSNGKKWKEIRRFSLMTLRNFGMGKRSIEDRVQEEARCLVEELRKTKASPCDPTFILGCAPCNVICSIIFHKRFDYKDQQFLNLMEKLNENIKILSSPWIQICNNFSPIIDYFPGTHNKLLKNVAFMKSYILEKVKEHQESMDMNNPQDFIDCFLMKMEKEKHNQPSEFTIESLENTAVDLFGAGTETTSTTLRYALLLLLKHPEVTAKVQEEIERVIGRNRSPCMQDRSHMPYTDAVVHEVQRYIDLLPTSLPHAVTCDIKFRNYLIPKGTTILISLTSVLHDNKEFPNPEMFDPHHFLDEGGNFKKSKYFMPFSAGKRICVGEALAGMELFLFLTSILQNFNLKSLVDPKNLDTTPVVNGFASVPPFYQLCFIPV
Sequence of CYP1A2 (P05177 whole entry): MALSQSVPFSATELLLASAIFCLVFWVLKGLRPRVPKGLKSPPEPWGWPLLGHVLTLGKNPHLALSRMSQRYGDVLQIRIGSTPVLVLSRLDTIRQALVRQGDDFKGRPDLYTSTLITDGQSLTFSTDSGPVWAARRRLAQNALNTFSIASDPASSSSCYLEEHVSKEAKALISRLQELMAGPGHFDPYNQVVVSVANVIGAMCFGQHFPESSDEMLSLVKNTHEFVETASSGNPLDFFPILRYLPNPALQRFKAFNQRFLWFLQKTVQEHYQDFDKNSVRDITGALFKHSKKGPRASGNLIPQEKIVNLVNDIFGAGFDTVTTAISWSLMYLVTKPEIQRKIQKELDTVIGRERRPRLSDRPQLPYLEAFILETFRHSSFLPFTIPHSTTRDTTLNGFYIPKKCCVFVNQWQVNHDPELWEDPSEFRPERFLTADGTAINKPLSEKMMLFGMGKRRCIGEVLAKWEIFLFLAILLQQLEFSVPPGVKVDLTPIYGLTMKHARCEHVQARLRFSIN

C[C@@H]1Cc2c([nH]c3ccc(F)cc23)[C@@H](c2c(F)cc(N[C@H]3CCN(CCCF)C3)cc2F)N1CC(F)(F)F [Compound 18, (S)—N-(3,5-difluoro-4-((1R,3R)-6-fluoro-3-methyl-2-(2,2,2-trifluoroethyl)-2,3,4,9-tetrahydro-1H-pyrido[3,4-b]indol-1-yl)phenyl)-1-(3-fluoropropyl)pyrrolidin-3-amine]
AUC(0-t) ([1]; iv, i.v. (2.5 mg/kg)): 2070 ± 294 ng·h/mL | clearance ([1]; iv, i.v. (2.5 mg/kg)): 16.9 ± 4 mL/min/kg | Vd ([1]; iv, i.v. (2.5 mg/kg)): 12.2 ± 1.5 L/kg | bioavailability ([1]; po, i.g. (10 mg/kg)): 55 ± 13% | AUC(0-t) ([1]; po, i.g. (10 mg/kg)): 4560 ± 1040 ng·h/mL | IC50 [2]: 2.82 µM | inhibition at 40 µM [2]: 100 ± 1.79% | AUC(0-t) ([3]; iv, i.v. (5 mg/kg)): 3810 ng·h/mL | clearance ([3]; iv, i.v. (5 mg/kg)): 15 mL/min/kg | Vd ([3]; iv, i.v. (5 mg/kg)): 18.2 L/kg | bioavailability ([3]; po, i.g. (10 mg/kg)): 74.3% | AUC(0-t) ([3]; po, i.g. (10 mg/kg)): 5650 ng·h/mL | IC50 (CYP2C9): 20 µM | IC50 (CYP2D6): 34.1 µM | IC50 (CYP1A2): > 100 µM | IC50 (CYP3A4): 15.7 µM

C[C@@H]1Cc2c([nH]c3cc(F)ccc23)[C@@H](c2c(F)cc(N[C@H]3CCN(CCCF)C3)cc2F)N1CC(F)(F)F [Compound 32, (S)—N-(3,5-difluoro-4-((1R,3R)-7-fluoro-3-methyl-2-(2,2,2-trifluoroethyl)-2,3,4,9-tetrahydro-1H-pyrido[3,4-b]indol-1-yl)phenyl)-1-(3-fluoropropyl)pyrrolidin-3-amine]
AUC(0-t) ([1]; iv, i.v. (2.5 mg/kg)): 853 ± 48 ng·h/mL | clearance ([1]; iv, i.v. (2.5 mg/kg)): 39.2 ± 2.8 mL/min/kg | Vd ([1]; iv, i.v. (2.5 mg/kg)): 31.4 ± 5.9 L/kg | bioavailability ([1]; po, i.g. (10 mg/kg)): 57.6 ± 14% | AUC(0-t) ([1]; po, i.g. (10 mg/kg)): 1970 ± 469 ng·h/mL | IC50 [2]: 4.14 µM | inhibition at 40 µM [2]: 100.2 ± 0.74% | AUC(0-t) ([3]; iv, i.v. (5 mg/kg)): 3360 ng·h/mL | clearance ([3]; iv, i.v. (5 mg/kg)): 16.3 mL/min/kg | Vd ([3]; iv, i.v. (5 mg/kg)): 21.6 L/kg | bioavailability ([3]; po, i.g. (10 mg/kg)): 65.6% | AUC(0-t) ([3]; po, i.g. (10 mg/kg)): 4410 ng·h/mL | IC50 (CYP2C9): 19.5 µM | IC50 (CYP2D6): 23.4 µM | IC50 (CYP1A2): > 100 µM | IC50 (CYP3A4): 18.9 µM

C#Cc1ccc2c3c([nH]c2c1)[C@@H](c1c(F)cc(N[C@H]2CCN(CCCF)C2)cc1F)N(CC(F)(F)F)[C@H](C)C3 [Compound 43, (S)—N-(4-((1R,3R)-7-ethynyl-3-methyl-2-(2,2,2-trifluoroethyl)-2,3,4,9-tetrahydro-1H-pyrido[3,4-b]indol-1-yl)-3,5-difluorophenyl)-1-(3-fluoropropyl)pyrrolidin-3-amine]
AUC(0-t) ([1]; iv, i.v. (2.5 mg/kg)): 1570 ± 143 ng·h/mL | clearance ([1]; iv, i.v. (2.5 mg/kg)): 20.8 ± 2 mL/min/kg | Vd ([1]; iv, i.v. (2.5 mg/kg)): 18.1 ± 2.1 L/kg | bioavailability ([1]; po, i.g. (10 mg/kg)): 51 ± 2.1% | AUC(0-t) ([1]; po, i.g. (10 mg/kg)): 3200 ± 129 ng·h/mL | IC50 [2]: 12.3 µM | inhibition at 40 µM [2]: 98.28 ± 0.93% | AUC(0-t) ([3]; iv, i.v. (5 mg/kg)): 10200 ng·h/mL | clearance ([3]; iv, i.v. (5 mg/kg)): 8.21 mL/min/kg | Vd ([3]; iv, i.v. (5 mg/kg)): 16.6 L/kg | bioavailability ([3]; po, i.g. (10 mg/kg)): 50.2% | AUC(0-t) ([3]; po, i.g. (10 mg/kg)): 10200 ng·h/mL | IC50 (CYP2C9): > 42.8 µM | IC50 (CYP2D6): 21.5 µM | IC50 (CYP1A2): 41.6 µM | IC50 (CYP3A4): > 12.7 µM
